Several values for one entry are separate records, joined by “and”; a condition that tells them apart may be missing. Equal values may be shown once. Read-outs that look alike come from different tables or passages of the source. Peptide text beside a SMILES is read from it. * marks the point of attachment. Cbz = O=C(OCc1ccccc1)*
Legend:
HT29 cells = assay: S-phase arrest by Hoechst 33342 imaging, HT29 cells; type: cell-based, human; conditions: HT29, 2.5 mM for 18 hours, n = 6 wells ± SD
Description: (§1) Single cell immunofluorescent imaging was conducted as previously described in CellCarrier 96WP or CellCarrier Ultra 96WP (6005550 or 6055300, Perkin Elmer) and imaged on an Operetta high content imager (Perkin Elmer) using a 10, 20 or 40x objective then analyzed using Harmony software (Perkin Elmer).

Chk1 [1] = biological target: T1, Chk1 (Homo sapiens, UniProt O14757); assay: Nuclear pChk1 (S317, S345) by single cell immunofluorescence, HT29 cells; type: cell-based; parameters: Thermal response profile of Chk1 in HT29 cells detected by immunofluorescent imaging with the EP691Y antibody; endogenous in cells; host or cells: HT29; conditions: HT29, 2.5 mM for 18 hours
T1 sequence (O14757 1-476): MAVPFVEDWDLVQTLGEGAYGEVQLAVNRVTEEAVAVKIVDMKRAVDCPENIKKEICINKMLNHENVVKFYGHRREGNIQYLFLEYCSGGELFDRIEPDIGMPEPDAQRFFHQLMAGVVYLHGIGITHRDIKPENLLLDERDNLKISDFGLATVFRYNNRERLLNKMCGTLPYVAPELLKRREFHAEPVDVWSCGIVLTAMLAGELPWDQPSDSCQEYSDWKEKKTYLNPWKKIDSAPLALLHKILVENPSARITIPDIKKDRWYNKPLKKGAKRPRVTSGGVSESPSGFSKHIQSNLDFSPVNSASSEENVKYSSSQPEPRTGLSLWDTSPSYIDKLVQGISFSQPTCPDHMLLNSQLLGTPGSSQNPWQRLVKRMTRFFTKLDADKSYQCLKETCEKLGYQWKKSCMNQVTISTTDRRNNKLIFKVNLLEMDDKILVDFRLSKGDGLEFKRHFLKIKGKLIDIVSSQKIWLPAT
Description: as §1

Chk1 [2] = biological target: T1, Chk1; assay: Chk1 thermal stability by immunofluorescence, PBS immersion heating, HT29 cells; type: cell-based; parameters: Thermal response profile of Chk1 in HT29 cells detected by immunofluorescent imaging with the EP691Y antibody; endogenous in cells; host or cells: HT29; conditions: HT29, 1–10 μM for 30 minutes, heated to 46, 49, 52 or 55°C
From the text: (§2) Plates were heated as follows: (i) sealed with adhesive aluminum PCR plate foil and then floated or submerged in a water bath (Grant Instruments W14) containing water pre-heated to the desired temperature or (ii) 1 L of DPBS containing magnesium and calcium (D1283, Sigma) was placed in a clean water bath (SUB6, Grant Instruments) and heated to the required temperature. The media was removed from the wells of the CellCarrier plate and the plate submersed in the DPBS so that all wells were full of DPBS and the plate was not touching the bottom of the water bath. The plate was incubated in the DPBS for 3 minutes, removed, the hot DPBS removed and replaced with 100 μL room temperature DPBS and then incubated at room temperature for 5 minutes. In some experiments, the DPBS was substituted for live cell imaging solution (LCIS, 20 mM Hepes, 140 mM NaCl, 2.5 mM KCl, 1.8 mM CaCl2, 1.0 mM MgCl2, pH 7.4).
as §1

Chk1 [3] = biological target: T1, Chk1; parameters: Thermal response profile of Chk1 in HT29 cells detected by immunofluorescent imaging with the EP691Y antibody; endogenous in cells; host or cells: HT29; conditions: HT29 cells; read-out: CETSA classic EC50; cited from earlier work
Chk1 [4] = biological target: T1, Chk1; assay: Chk1 autophosphorylation (pS296) by immunoblotting and densitometry, HT29 cells; type: cell-based; parameters: Thermal response profile of Chk1 in HT29 cells detected by immunofluorescent imaging with the EP691Y antibody; endogenous in cells; host or cells: HT29; conditions: for IC50: HT29, 10 min
Description: (§3) Immunoblotting was conducted as previously described.

Chk1 [5] = biological target: T1, Chk1; assay: HCIF-CETSA (CETSA by immunofluorescence), low well volume heating, U2OS cells; type: cell-based; conditions: 10 min
Description: 10 000 cells were plated per well of a CellCarrier Ultra 96WP (6055300, Perkin Elmer) and allowed to adhere overnight. Compounds were serially diluted in DMSO to 200-times the final assay concentration then diluted 1:200 in media (without FCS). The cell media was removed and replaced with 25 μL of compound in media and incubated at 37°C, 5% CO2 for 10 minutes. The plate was sealed with an aluminum plate seal and heated by floating in a pre-heated water bath (Grant Instruments W14) for 3 minutes. 75 μL of room temperature media (without FCS or compound) was added and the plate incubated at room temperature for 5 minutes. Cells were fixed by the addition of 100 μL paraformaldehyde (7.4% in PBS) at room temperature for 15 minutes. Cells were washed 3 times with PBS and Chk1 detected with anti-Chk1 rabbit EP691Y monoclonal antibody (Ab40866, Abcam) and an AlexaFluor488 anti-rabbit secondary antibody (A-11034, Thermo Fisher Scientific). Plates were imaged on an Operetta high content imager using a 20x objective and analyzed using Harmony software.

Chk1 [6] = biological target: T1, Chk1; assay: Chk1 thermal stability by immunofluorescence, sealed plate submerged in water bath, HT29 cells; type: cell-based; parameters: Thermal response profile of Chk1 in HT29 cells detected by immunofluorescent imaging with the EP691Y antibody; endogenous in cells; host or cells: HT29; conditions: HT29, 10 μM for 30 minutes, HU treated or untreated, sealed plate 55°C
From the text: as §2, §1

Chk1 [7] = biological target: T1, Chk1; parameters: endogenous in cells; conditions: U2OS cells; read-out: CETSA classic EC50; cited from earlier work
Chk1 [8] = biological target: T1, Chk1; assay: HCIF-CETSA (CETSA by immunofluorescence), low well volume heating, HT29 cells; type: cell-based; parameters: Thermal response profile of Chk1 in HT29 cells detected by immunofluorescent imaging with the EP691Y antibody; endogenous in cells; host or cells: HT29; conditions: for EC50: 25 μL media
Description: Compounds were serially diluted in DMSO to 200-times the final assay concentration then diluted 1:200 in media (without FCS). The cell media was removed and replaced with 25 μL of compound in media and incubated at 37°C, 5% CO2 for 10 minutes. The plate was sealed with an aluminum plate seal and heated by floating in a pre-heated water bath (Grant Instruments W14) for 3 minutes. 75 μL of room temperature media (without FCS or compound) was added and the plate incubated at room temperature for 5 minutes. […] Plates were imaged on an Operetta high content imager using a 20x objective and analyzed using Harmony software.

Chk1 [9] = biological target: T1, Chk1; assay: as above; type: cell-based; parameters: Thermal response profile of Chk1 in HT29 cells detected by immunofluorescent imaging with the EP691Y antibody; endogenous in cells; host or cells: HT29; conditions: HT29, 10 minute incubation, 50 μL media, 51°C (Fig 6D)
Chk1 [10] = biological target: T1, Chk1; assay: Chk1 autophosphorylation (pS296) by immunoblotting and densitometry, U2OS cells; type: cell-based; conditions: 10 min, identical cellular conditions to HCIF-CETSA (Fig 6E)
Description: as §3

[11] = HT29, 0–40 μM inhibitor, 10 min, 49°C (Fig 8A), read-out: EC50, decrease in nuclear Chk1 fluorescence following heating

With `NC(=O)NO` [HU, Hydroxyurea] the “Cells exhibiting evidence of S-phase arrest” value (HT29 cells) was 71.4 ± 0.7%, the “Increase in nuclear Chk1 pS317” value (Chk1 [1]) was 1.9 fold and the “Increase in nuclear Chk1 pS345” value (Chk1 [1]) was 1.6 fold.
In the case of `CN(C)CC(C)(C)COc1ccc2[nH]c(-c3cc(NC(=O)c4cnn(Cc5ccccc5)c4)c[nH]c3=O)cc2c1` [V158411], the “Effect on mean nuclear Chk1 intensity after PBS immersion heating” value (Chk1 [2]) is listed as “did not alter the mean nuclear Chk1 intensity”, the EC50 (Chk1 [3]) is listed as 3.3 ± 3.4 µM and the “Effect on Chk1 autophosphorylation” value (Chk1 [4]; HT29, 0–10 μM for 30 minutes, HU treated and untreated cells (Fig 4B)) is listed as “inhibited Chk1 autophosphorylation”. The IC50 (Chk1 [4]; identical cellular conditions to HCIF-CETSA (Fig 6E), read-out: IC50, Chk1 autophosphorylation (pS296)) was roughly 160 nM, the EC50 (Chk1 [5]; U2OS, 25 μL media, 49°C (Fig 6C)) was 1400 ± 300 nM and the “Effect on mean nuclear Chk1 fluorescence in unheated cells” value (Chk1 [5]; unheated U2OS, 0–20 μM) was “increased the mean nuclear Chk1 fluorescence”. The “Effect on thermostabilization of total Chk1 or phosphorylated Chk1” value (Chk1 [6]) was “no effect”, the EC50 (Chk1 [7]) was 2300 ± 1200 nM and the EC50 (Chk1 [8]; [11]) was 2000 ± 900 nM. For the same molecule, the EC50 (Chk1 [8]; HT29, 10 min, 49°C (Fig 6B), read-out: HCIF-CETSA EC50, mean of three independent experiments) was 1700 ± 400 nM, the EC50 (Chk1 [8]; HT29, 10 min, 49°C (Fig 6B), read-out: HCIF-CETSA EC50, single values of three independent experiments) was 1900 nM and 1200 nM and the EC50 (Chk1 [8]; HT29, 10 min pre-incubation, heated to 46°C (Fig 6A), read-out: EC50, reduction in Chk1 nuclear immunofluorescence) was 1900 nM. It also gave an EC50 (Chk1 [8]; HT29, 10 min pre-incubation, heated to 49°C (Fig 6A), read-out: EC50, reduction in Chk1 nuclear immunofluorescence) of 1900 nM, an EC50 (Chk1 [8]; HT29, 10 min pre-incubation, heated to 52°C (Fig 6A), read-out: EC50, reduction in Chk1 nuclear immunofluorescence) of 2500 nM and an EC50 (Chk1 [9]) of 1000 nM. The IC50 (Chk1 [10]) was roughly 110 nM.
In the case of `CC(C)C[C@@H](C=O)NC(=O)[C@H](CC(C)C)NC(=O)[C@H](CC(C)C)NC(=O)OCc1ccccc1` [MG-132, reference compound] (Cbz-Leu-Leu-Leu-aldehyde), the “Effect on temperature induced decrease in Chk1 nuclear fluorescence” value (Chk1 [8]; HT29, 5 μM for 2 hours, then DMSO or 3 μM V158411, 49 or 52°C) is reported as “did not block”.
For `N#Cc1cc2c(cn1)[nH]c1ncc(-c3ccc(CN4CCCCC4)cc3)cc12` [GNE-900, reference compound], the IC50 (Chk1 [4]; same dilution series and conditions as HCIF-CETSA (Fig 8B), read-out: IC50, S296 phosphorylation) was 500 nM and the EC50 (Chk1 [8]; [11]) was 1300 ± 300 nM.

Source: article PMC5884524, “A high content, high throughput cellular thermal stability assay for measuring drug-target engagement in living cells” (PLoS ONE, 2018)
